Source: patent publication US20190364899A1, “MICROBIOCIDAL OXADIAZOLE DERIVATIVES” (SYNGENTA PARTICIPATIONS AG, priority 2015, published 2019)

Assays:
[1] = tested on: Glomerella Lagenarium (Colletotrichum Lagenarium); test: Fungicidal activity against Glomerella lagenarium (Colletotrichum lagenarium) liquid culture / cucumber / preventative (anthracnose); type: cell-based; settings: Colletotrichum orbiculare; 20 ppm in the applied formulation; liquid culture in PDB, growth inhibition measured photometrically 3 to 4 days after application; compared to untreated; read-out: disease control
Method: (§1) General examples of leaf disk tests in well plates: Leaf disks or leaf segments of various plant species are cut from plants grown in a greenhouse. The cut leaf disks or segments are placed in multiwell plates (24-well format) onto water agar. The leaf disks are sprayed with a test solution before (preventative) or after (curative) inoculation. Compounds to be tested are prepared as DMSO solutions (max. 10 mg/ml) which are diluted to the appropriate concentration with 0.025% Tween20 just before spraying. The inoculated leaf disks or segments are incubated under defined conditions (temperature, relative humidity, light, etc.) according to the respective test system. A single evaluation of disease level is carried out 3 to 14 days after inoculation, depending on the pathosystem. Percent disease control relative to the untreated check leaf disks or segments is then calculated. General examples of liquid culture tests in well plates: Mycelia fragments or conidia suspensions of a fungus prepared either freshly from liquid cultures of the fungus or from cryogenic storage, are directly mixed into nutrient broth. DMSO solutions of the test compound (max. 10 mg/ml) are diluted with 0.025% Tween20 by a factor of 50 and 10 μl of this solution is pipetted into a microtiter plate (96-well format). The nutrient broth containing the fungal spores/mycelia fragments is then added to give an end concentration of the tested compound. The test plates are incubated in the dark at 24° C. and 96% relative humidity. The inhibition of fungal growth is determined photometrically after 2 to 7 days, depending on the pathosystem, and percent antifungal activity relative to the untreated check is calculated.
Example 4: Fungicidal Activity Against Glomerella Lagenarium (Colletotrichum Lagenarium) Liquid Culture/Cucumber/Preventative (Anthracnose)
Conidia of the fungus from cryogenic storage are directly mixed into nutrient broth (PDB—potato dextrose broth). After placing a (DMSO) solution of test compound into a microtiter plate (96-well format), the nutrient broth containing the fungal spores is added. The test plates are incubated at 24° C. and the inhibition of growth is measured photometrically 3 to 4 days after application.
The following compounds at 20 ppm in the applied formulation give at least 80% disease control in this test when compared to untreated control under the same conditions, which show extensive disease development.

Phakopsora pachyrhizi = test: Fungicidal activity against Phakopsora pachyrhizi / soybean / leaf disc preventative (Asian soybean rust); type: in vivo; settings: foliar, 200 ppm in the applied formulation, soybean leaf disks, inoculated one day after application, compared to untreated, read-out: disease control
Method: as §1
Example 3: Fungicidal Activity Against Phakopsora pachyrhizi/Soybean/Leaf Disc Preventative (Asian Soybean Rust)
Soybean leaf disks are placed on water agar in multiwell plates (24-well format) and sprayed with the formulated test compound diluted in water. One day after application leaf discs are inoculated by spraying a spore suspension on the lower leaf surface. After an incubation period in a climate cabinet of 24-36 hours in darkness at 20° C. and 75% rh leaf disc are kept at 20° C. with 12 h light/day and 75% rh. The activity of a compound is assessed as percent disease control compared to untreated when an appropriate level of disease damage appears in untreated check leaf disks (12 to 14 days after application).
(§2) The following compounds at 200 ppm in the applied formulation give at least 80% disease control in this test when compared to untreated control leaf disks under the same conditions, which show extensive disease development.

[2] = tested on: Puccinia recondita f, Sp. Tritici; test: Fungicidal activity against Puccinia recondita f. sp. tritici / wheat / leaf disc preventative (brown rust); type: in vivo; settings: foliar, 200 ppm in the applied formulation, wheat leaf segments cv. Kanzler, inoculated 1 day after application, compared to untreated, read-out: disease control
Method: as §1
Example 1: Fungicidal Activity Against Puccinia recondita f, Sp. Tritici/Wheat/Leaf Disc Preventative (Brown Rust)
Wheat leaf segments cv. Kanzler were placed on agar in multiwell plates (24-well format) and sprayed with the formulated test compound diluted in water. The leaf disks were inoculated with a spore suspension of the fungus 1 day after application. The inoculated leaf segments were incubated at 19° C. and 75% relative humidity (rh) under a light regime of 12 hours light/12 hours darkness in a climate cabinet and the activity of a compound was assessed as percent disease control compared to untreated when an appropriate level of disease damage appears in untreated check leaf segments (7 to 9 days after application).
as §2

[3] = tested on: Puccinia Recondite f. Sp. Tritici; test: Fungicidal activity against Puccinia recondita f. sp. tritici / wheat / leaf disc curative (brown rust); type: in vivo; settings: foliar, 24 h, 200 ppm in the applied formulation, wheat leaf segments cv. Kanzler, applied 1 day after inoculation, compared to untreated, read-out: disease control
Method: as §1
Example 2: Fungicidal Activity Against Puccinia Recondite f. Sp. Tritici Wheat/Leaf Disc Curative (Brown Rust)
Wheat leaf segments cv. Kanzler are placed on agar in multiwell plates (24-well format). The leaf segments are then inoculated with a spore suspension of the fungus. Plates were stored in darkness at 19° C. and 75% relative humidity. The formulated test compound diluted in water was applied 1 day after inoculation. The leaf segments were incubated at 19° C. and 75% relative humidity under a light regime of 12 hours light/12 hours darkness in a climate cabinet and the activity of a compound was assessed as percent disease control compared to untreated when an appropriate level of disease damage appears in untreated check leaf segments (6 to 8 days after application).
as §2

- melting point: 176 to 180.1 °C
Compound: O=C(NCc1ccc(-c2noc(C(F)(F)F)n2)cc1)NC1CC1 [Compound 2.3, 1-cyclopropyl-3-[[4-[5-(trifluoromethyl)-1,2,4-oxadiazol-3-yl]phenyl]methyl]urea]
- inhibition of growth at 20 ppm [1]: ≥ 80%
- pest or weed control at 200 ppm (Phakopsora pachyrhizi): ≥ 80%
- pest or weed control at 200 ppm [2]: ≥ 80%
- pest or weed control at 200 ppm [3]: ≥ 80%
